Among the data in PubChem BioAssay AID652216 (The Scripps Research Institute Molecular Screening Center, 2013) are IC50 values, retold here.

pIC50: −log10 of the molar value. Activity calls are given as the source filed them.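 How the source made its calls: active means IC50 below 10 µM against protein phosphatase 1 in the dose response test; inactive means IC50 of 10 µM or more.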

The target in the assay is Serine/threonine-protein phosphatase PP1-alpha catalytic subunit (Homo sapiens) (UniProt P62136). Briefly: dose-dependent PP1alpha phosphatase inhibition – biochemical, fluorescence, OMFP substrate, set 4, dose response (AID 652216). The note with it: purified PP1alpha, OMFP dephosphorylation fluorescence.
Serine/threonine-protein phosphatase PP1-alpha catalytic subunit (Homo sapiens), sequence (P62136 whole entry, looked up): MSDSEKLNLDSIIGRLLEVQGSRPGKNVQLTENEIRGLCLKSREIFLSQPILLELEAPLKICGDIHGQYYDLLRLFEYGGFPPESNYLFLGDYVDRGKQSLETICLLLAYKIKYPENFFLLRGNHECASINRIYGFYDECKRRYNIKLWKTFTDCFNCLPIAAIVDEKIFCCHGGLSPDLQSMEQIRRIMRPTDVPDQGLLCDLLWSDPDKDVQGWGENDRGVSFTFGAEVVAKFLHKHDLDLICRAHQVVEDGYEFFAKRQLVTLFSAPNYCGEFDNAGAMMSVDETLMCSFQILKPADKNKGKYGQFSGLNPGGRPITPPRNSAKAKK

`CN1CCN([C@H](c2ccc(C(F)(F)F)cn2)c2ccc3cccnc3c2O)CC1`: the pIC50 was 5.05.

For the compound `CN1CCN(C(c2ccc(C(F)(F)F)cn2)c2ccc3cccnc3c2O)CC1` (centres undefined), the pIC50 is 5.35.

For `CN1CCN([C@@H](c2ccc(C(F)(F)F)cn2)c2ccc3cccnc3c2O)CC1`, the negative logarithm of the IC50 (pIC50) was 5.08.

On to `CN1CCN(C(c2cccc(F)n2)c2ccc3cccnc3c2O)CC1` (centres undefined), for which the IC50 entry was “inactive”.
